Laboratory results taken from patent publication US9758788B2, “Mutagenesis of plants for overproduction of selective estrogen receptor modulators” (Naprogenix, Inc., priority 2014, dated 2017).

Experiments:
transgenic hDAT 1°HRs = test: Toxicity of DA-ergic toxins, trypan blue staining, transgenic hairy roots; conditions: for cells killed by toxin exposure: 24 h, 6-OHDA 50 uM, MPTP 100 μM, MPP+ 100 μM
Description: (§1) Trypan blue staining for toxicity was quantified using ImageJ software. […] Since MPTP is converted to the its cytotoxic metabolite, MPP+, by oxidases, biosynthesis of oxidase inhibitors would also confer a survival advantage if MPTP were chosen as a selection agent (monoamine oxidase inhibitors prevent MPTP toxicity in SH-SY5Y neuroblastoma cells).

Non-transgenic 1°HRs = test: Toxicity of DA-ergic toxins, trypan blue staining, non-transgenic hairy roots; type: cell-based, Lobelia cardinalis; conditions: 6-OHDA 50 uM, MPTP 100 μM, MPP+ 100 μM
Description: as §1

nicAChRs [1] = test: nicAChR binding: inhibition of [3H]-epibatidine binding; set-up: species or system rat; conditions: non-subtype selective radioligand
Description: (§2) Lobinaline was purified from a methanol extract prepared from dried aerial portions of L. cardinalis. The methanolic extract was dried under vacuum, resuspended in water, and defatted with hexane. The hexane phase was removed, and the remaining aqueous phase was partitioned with chloroform. The chloroform phase was collected, dried under vacuum, and lobinaline was purified from this fraction by acid/base extraction to yield lobinaline of ˜95% purity (single peak and spectroscopic authenticity by GC-MS). This compound was then dissolved in DMSO and used in aqueous solution to evaluate its effects on the dopamine transporter and nicAChRs, both in rat brain preparations and in the human dopaminergic neuroblastoma cell line SH-SY5Y. Antioxidant activity of lobinaline was evaluated using the dipheny picryl hydrazyl free radical scavenging assay.
(§3) It is therefore relatively non-selective, whereas almost all known plant alkaloids are relatively selective for the […] nicAChR.

alpha7 nicAChR = biological target: T1, alpha7 nicAChR (Rattus norvegicus, UniProt Q05941); test: nicAChR binding: inhibition of [3H]-MLA binding; conditions: alpha7 selective ligand
T1 construct: from tissue; host or cells: rat brain preparation (inferred)
Description: as §2, §3

[2] = biological target: T2, dopamine transporter (DAT) (Rattus norvegicus, UniProt P23977); test: [3H]-dopamine uptake into rat striatal synaptosomes; type: biochemical
T2 construct: from tissue; host or cells: rat striatal synaptosomes

DAT = biological target: T3, DAT (Rattus norvegicus, UniProt P23977); test: [3H]-GBR12935 specific binding to rat striatal membranes
T3 construct: from tissue; host or cells: rat striatal membranes
Description: (§4) The low affinity binding of lobinaline to this site on the DAT may therefore not be directly related to its functional effect.

SH-SY5Y cells = test: MPP+ toxicity on SH-SY5Y cells; type: cell-based, human
Description: as §2, §4

[3] = DPPH free radical scavenging assay; conditions: read-out: IC50, inhibition of DPPH free radical activity
Description: as §2
Stable free radical diphenyl picryl hydrazyl (DPPH) scavenging was used to assess anti-oxidant activity.
Dried methanolic extracts prepared from individual L. cardinalis hairy roots were dissolved in assay buffer and tested for (a) concentration-dependent effects on [^3H]-DA uptake into rat striatal synaptosomes, (b) quenching stable DPPH radical, as measured by absorbance at 517 nm. The results are presented as “lobinaline equivalents” calculated from pure lobinaline concentration response curves (FIG. 1). […]

nicAChRs [4] = test: [3H]-dopamine release from rat brain striatal slices; type: biochemical
[5] = mice; compared with lobeline; cited from earlier work
[6] = PubChem; cited from earlier work

T3 sequence (P23977 whole entry): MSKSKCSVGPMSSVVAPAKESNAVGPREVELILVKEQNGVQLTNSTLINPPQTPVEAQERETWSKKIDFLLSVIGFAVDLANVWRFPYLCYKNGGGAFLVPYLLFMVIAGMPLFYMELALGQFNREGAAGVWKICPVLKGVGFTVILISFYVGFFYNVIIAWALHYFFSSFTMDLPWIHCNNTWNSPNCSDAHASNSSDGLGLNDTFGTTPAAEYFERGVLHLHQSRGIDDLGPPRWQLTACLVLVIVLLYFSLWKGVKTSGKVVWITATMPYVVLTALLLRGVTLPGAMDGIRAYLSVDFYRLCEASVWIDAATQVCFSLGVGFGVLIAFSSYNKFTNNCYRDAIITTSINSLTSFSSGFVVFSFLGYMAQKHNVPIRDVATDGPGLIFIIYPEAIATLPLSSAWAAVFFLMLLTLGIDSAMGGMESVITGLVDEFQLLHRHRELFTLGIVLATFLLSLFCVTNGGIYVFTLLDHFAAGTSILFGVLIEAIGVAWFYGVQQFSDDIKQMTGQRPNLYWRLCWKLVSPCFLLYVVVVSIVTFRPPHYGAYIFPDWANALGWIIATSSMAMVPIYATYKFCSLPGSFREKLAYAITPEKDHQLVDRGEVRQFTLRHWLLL
T2 sequence (P23977 whole entry): as above
T1 sequence (Q05941 23-502): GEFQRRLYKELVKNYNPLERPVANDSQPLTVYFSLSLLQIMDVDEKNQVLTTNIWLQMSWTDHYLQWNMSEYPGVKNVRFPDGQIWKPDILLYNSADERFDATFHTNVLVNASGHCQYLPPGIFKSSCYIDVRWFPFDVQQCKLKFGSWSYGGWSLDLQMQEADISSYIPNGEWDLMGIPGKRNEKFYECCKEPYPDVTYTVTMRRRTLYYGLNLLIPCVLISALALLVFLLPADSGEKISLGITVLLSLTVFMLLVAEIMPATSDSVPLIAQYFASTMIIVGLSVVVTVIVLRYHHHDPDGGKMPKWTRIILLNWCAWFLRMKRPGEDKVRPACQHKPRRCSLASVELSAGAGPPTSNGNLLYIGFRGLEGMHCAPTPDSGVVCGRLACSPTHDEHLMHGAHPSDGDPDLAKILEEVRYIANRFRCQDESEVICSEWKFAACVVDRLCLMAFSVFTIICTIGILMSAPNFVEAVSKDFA

Structure (SMILES): NCCc1cc(O)c(O)cc1O [6-OHDA]
- cells killed by toxin exposure (transgenic hDAT 1°HRs): ~50%
- damage by toxin exposure (Non-transgenic 1°HRs): not significantly damaged

Structure (SMILES): Fc1ccc(C(OCCN2CCN(CCCc3ccccc3)CC2)c2ccc(F)cc2)cc1 [GBR12909]
- inhibition of toxin cytotoxicity (transgenic hDAT 1°HRs; toxins 6-OHDA, MPTP or MPP+): inhibited

Structure (SMILES): C[n+]1ccc(-c2ccccc2)cc1 [MPP+]
- cells killed by toxin exposure (transgenic hDAT 1°HRs): ~50%
- damage by toxin exposure (Non-transgenic 1°HRs): not significantly damaged

Structure (SMILES): CN1CC=C(c2ccccc2)CC1 [MPTP]
- cells killed by toxin exposure (transgenic hDAT 1°HRs): ~50%
- damage by toxin exposure (Non-transgenic 1°HRs): not significantly damaged

Structure (SMILES): CN1CCCC2C(c3ccccc3)C(C3=NCCCC3)C(c3ccccc3)CC21 (stereo not shown) [lobinaline]
- Ki (nicAChRs [1]): 17.3 µM
- Ki (alpha7 nicAChR): 105 µM
- maximum inhibition of dopamine uptake [2]: 85.25%
- IC50 ([2]; read-out: IC50, inhibition of [3H]-dopamine uptake): 12 µM
- inhibition of [3H]-GBR12935 specific binding (extent) (DAT): completely inhibited
- Ki (DAT; read-out: Ki, inhibition of [3H]-GBR12935 specific binding): 89 µM
- concentration inhibiting the toxicity of MPP+ (SH-SY5Y cells): ~100 µM
- IC50 [3]: 21.1 µM
- effect on DA release induced by nicotine (nicAChRs [4]; 10 μM nicotine): reduced the DA release
- mammalian toxicity (LD50) [5]: low mammalian toxicity
- Hydrogen Bond Acceptors [6]: 2
- Hydrogen Bond Donors [6]: 0
- Log P [6]: 4.8

Structure (SMILES): CNC1(C)C2CCC(C2)C1(C)C (stereo not shown) [mecamylamine, reference compound]
- inhibition of the initial phase of [3H] release caused by the lobinaline-containing fraction (nicAChRs [4]; 10 μM mecamylamine): almost completely inhibited

Structure (SMILES): O=c1c(O)c(-c2ccc(O)c(O)c2)oc2cc(O)cc(O)c12 [quercetin, reference compound]
- IC50 [3]: 11.2 µM
